Experimental data reported in patent US8586588B2, “Aryl pyridazinone derivatives and their use as H3 receptor ligands” (Cephalon, Inc., priority 2006, dated 2013).
Values belong to the molecule of their own block, whether it stands above or below them.

Legend:
[1] = target: T1, human H3 receptor (Homo sapiens, UniProt Q9Y5N1); test: Human H3 radioligand binding ([3H]-N-alpha-methylhistamine, CHO cell membranes, SPA); conditions: Table B, binding constant as letter class
T1 construct: expressed in transfected cells
T1 sequence (Q9Y5N1 whole entry): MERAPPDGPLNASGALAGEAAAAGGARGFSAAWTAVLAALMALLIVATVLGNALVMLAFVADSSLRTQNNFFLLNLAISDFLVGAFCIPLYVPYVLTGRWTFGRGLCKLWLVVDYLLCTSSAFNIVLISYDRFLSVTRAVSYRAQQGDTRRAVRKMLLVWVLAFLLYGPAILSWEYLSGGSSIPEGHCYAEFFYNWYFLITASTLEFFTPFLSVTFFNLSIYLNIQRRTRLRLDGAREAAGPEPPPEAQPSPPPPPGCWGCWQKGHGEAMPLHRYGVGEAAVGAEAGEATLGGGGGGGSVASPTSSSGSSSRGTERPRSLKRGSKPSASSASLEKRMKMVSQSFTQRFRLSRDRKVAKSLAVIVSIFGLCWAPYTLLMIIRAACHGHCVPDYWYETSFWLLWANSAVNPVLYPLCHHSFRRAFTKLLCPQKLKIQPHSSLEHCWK
Summary of the method: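 Scintillation proximity format: bead-proximal [3H]-N-alpha-methylhistamine (approximately 1 nM final) bound to human H3 receptor in CHO membranes was counted after 4 h at room temperature, light-protected. Buffer was pH 7.4 Tris/MgCl2/BSA; test compounds spanned 0.01 nM-30 μM; 10 μM clobenpropit set non-specific binding.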

[2] = target: T2, rat histamine H3 receptor (Rattus norvegicus, UniProt Q9QYN8); test: Rat H3 radioligand binding ([3H]-N-alpha-methylhistamine, CHO-A3 cell membranes, SPA); conditions: Table B, binding constant as letter class; read-out: rat H3 Ki
T2 construct: encoding the entire 445-amino-acid rat histamine H3 receptor; expressed in transfected cells
T2 sequence (Q9QYN8 whole entry): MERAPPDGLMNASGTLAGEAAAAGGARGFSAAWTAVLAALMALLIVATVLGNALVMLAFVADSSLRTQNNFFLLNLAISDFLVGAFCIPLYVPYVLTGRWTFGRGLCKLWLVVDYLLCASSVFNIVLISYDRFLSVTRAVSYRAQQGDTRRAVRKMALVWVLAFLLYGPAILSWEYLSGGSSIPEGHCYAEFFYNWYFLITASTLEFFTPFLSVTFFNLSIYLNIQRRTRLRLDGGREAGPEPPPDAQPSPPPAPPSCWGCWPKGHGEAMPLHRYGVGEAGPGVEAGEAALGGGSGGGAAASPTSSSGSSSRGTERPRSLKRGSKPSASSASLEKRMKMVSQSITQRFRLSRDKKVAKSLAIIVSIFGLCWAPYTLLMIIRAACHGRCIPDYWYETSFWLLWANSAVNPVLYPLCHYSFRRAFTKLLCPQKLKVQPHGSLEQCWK
Summary of the method: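 Scintillation proximity displacement of about 1 nM [3H]-N-alpha-methylhistamine, test compound 0.01 nM-30 μM, 4 h, room temperature, in the dark. Receptor source: rat H3 stably transfected into CHO-A3 cells, 10 μg membrane protein, Tris-HCl pH 7.4/MgCl2/BSA buffer. Nonspecific binding defined by 10 μM clobenpropit.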

Ki [1]: 0.1 to 100 nM
melting point: 146 to 149 °C
Ki [2]: 0.1 to 100 nM
SMILES: O=C1CCC(c2ccc(OC3CCN(C4CCC4)CC3)nc2)=NN1C1CCC1 [Example 177, 2-Cyclobutyl-6-[6-(1-cyclobutyl-piperidin-4-yloxy)-pyridin-3-yl]-4,5-dihydro-2H-pyridazin-3-one]

Ki [1]: 0.1 to 100 nM
melting point: 162 to 164 °C
Ki [2]: 0.1 to 100 nM
SMILES: O=C1CCC(c2cc(F)c(OC3CCN(C4CCC4)CC3)c(F)c2)=NN1 [Example 187, 6-[4-(1-Cyclobutyl-piperidin-4-yloxy)-3,5-difluoro-phenyl]-4,5-dihydro-2H-pyridazin-3-one]

Ki [1]: 0.1 to 100 nM
melting point: 79 to 81 °C
Ki [2]: 0.1 to 100 nM
SMILES: O=C1NN=C(c2ccc(OC3CCN(C4CCC4)CC3)cc2)C2CC12 (stereo not drawn) [Example 244, 5-[4-(1-Cyclobutyl-piperidin-4-yloxy)-phenyl]-3,4-diaza-bicyclo[4.1.0]hept-4-en-2-one]

Ki [1]: 0.1 to 100 nM
melting point: 145 to 148 °C
Ki [2]: 0.1 to 100 nM
SMILES: C[C@H](COc1ccc(-c2cn[nH]c(=O)c2)cc1)CN1CCCCC1 [Example 227, 5-[4-((S)-2-Methyl-3-piperidin-1-yl-propoxy)-phenyl]-2H-pyridazin-3-one]

Ki [1]: 0.1 to 100 nM
melting point: > 300 °C
Ki [2]: 0.1 to 100 nM
SMILES: O=C1CC2CCc3cc(OC4CCN(C5CCC5)CC4)ccc3C2=NN1 (stereo not drawn) [Example 220, 8-(1-Cyclobutyl-piperidin-4-yloxy)-4,4a,5,6-tetrahydro-2H-benzo[h]cinnolin-3-one]

Ki [1]: 0.1 to 100 nM
melting point: 169 to 171 °C
Ki [2]: 0.1 to 100 nM
SMILES: C[C@@H]1CCCN1CCCOc1c(F)cc(-c2ccc(=O)[nH]n2)cc1F [Example 184, 6-{3,5-Difluoro-4-[3-((R)-2-methyl-pyrrolidin-1-yl)-propoxy]-phenyl}-2H-pyridazin-3-one]

Ki [1]: 101 to 500 nM
melting point: < 50 °C
Ki [2]: 101 to 500 nM
SMILES: CN(CCCOc1ccc(-c2ccc(=O)[nH]n2)cc1)C1CCC1 [Example 241, 6-{4-[3-(Cyclobutyl-methyl-amino)-propoxy]-phenyl}-2H-pyridazin-3-one]

Ki [1]: 0.1 to 100 nM
melting point: 195 to 197 °C
Ki [2]: 0.1 to 100 nM
SMILES: O=c1ccc(-c2cc(F)c(OC3CCN(C4CCC4)CC3)c(F)c2)n[nH]1 [Example 188, 6-[4-(1-Cyclobutyl-piperidin-4-yloxy)-3,5-difluoro-phenyl]-2H-pyridazin-3-one]

Further lines, the molecule ahead of its results:

SMILES: COc1cc(-c2ccc(=O)[nH]n2)ccc1OCCCN1CCCCC1 [Example 135, 6-[3-Methoxy-4-(3-piperidin-1-yl-propoxy)-phenyl]-2H-pyridazin-3-one]
Ki [1]: 101 to 500 nM
melting point: 175 °C (dec.)
Ki [2]: 101 to 500 nM

SMILES: O=c1ccc(-c2ccc(O[C@@H]3CCN(C4CCCCC4)C3)cc2)n[nH]1 [Example 160, 6-[4-((R)-1-Cyclohexyl-pyrrolidin-3-yloxy)-phenyl]-2H-pyridazin-3-one]
Ki [1]: 101 to 500 nM
melting point: 200 to 202 °C
Ki [2]: 101 to 500 nM

SMILES: O=c1ccc(-c2ccc(OCCCN3CCCCC3)cc2)n[nH]1 [Example 134, 6-[4-(3-Piperidin-1-yl-propoxy)-phenyl]-2H-pyridazin-3-one]
Ki [1]: 0.1 to 100 nM
melting point: 186 °C (dec.)
Ki [2]: 0.1 to 100 nM

SMILES: O=C1CCC(c2ccc(OCCCN3CCCCC3)cc2)=NN1CC(F)(F)F [Example 169, 6-{4-[3-piperidin-1-yl-propoxy]-phenyl}-2-(2,2,2-trifluoro-ethyl)-4,5-dihydro-2H-pyridazin-3-one]
Ki [1]: 0.1 to 100 nM
melting point: 87 to 89 °C
Ki [2]: 0.1 to 100 nM

SMILES: O=c1ccc(-c2ccc(OC3CCN(C4CCC4)CC3)c(F)c2)n[nH]1 [Example 156, 6-[4-(1-Cyclobutyl-piperidin-4-yloxy)-3-fluoro-phenyl]-2H-pyridazin-3-one]
Ki [1]: 0.1 to 100 nM
melting point: 236 to 238 °C
Ki [2]: 0.1 to 100 nM

SMILES: CC1=NNC(=O)CC1c1ccc(OC2CCN(C3CCC3)CC2)cc1 (stereo not drawn) [Example 110, 5-[4-(1-Cyclobutyl-piperidin-4-yloxy)-phenyl]-6-methyl-4,5-dihydro-2H-pyridazin-3-one]
Ki [1]: 0.1 to 100 nM
melting point: 178 to 179 °C
Ki [2]: 0.1 to 100 nM
